The target of the first test is cruzain (Trypanosoma cruzi, UniProt P25779). In words: biochemical. The settings on record: 0’ (no pre-incubation); sheet Screening results. In short, it runs like this:
(§1)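 Recombinant enzymes assayed by Z-Phe-Arg-AMC cleavage at 25 °C, fluorescence 340/440 nm over 5–7 min, with 10 min or no enzyme–compound preincubation.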
Chain of cruzain (P25779 123-337 limits assumed): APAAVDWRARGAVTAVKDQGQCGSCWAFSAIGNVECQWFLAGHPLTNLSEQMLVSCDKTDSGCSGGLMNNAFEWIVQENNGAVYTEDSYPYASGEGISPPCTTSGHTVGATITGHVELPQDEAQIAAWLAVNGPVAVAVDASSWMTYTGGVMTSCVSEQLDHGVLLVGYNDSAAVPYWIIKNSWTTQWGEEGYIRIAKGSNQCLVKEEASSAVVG
Consider `CS(=O)(=O)c1cccc(-c2cnc3[nH]cc(-c4ccc(CCC(=O)O)cc4)c3c2)c1` [MMV026020], for which the “Cruzain Inhibition 0’” value came out at 12%.

Take `N#Cc1ccc(-c2ccc(OCC(N)=O)cc2)cc1` [MMV053220]: the “Cruzain Inhibition 0’” value is on record as -9%.

For the compound `CC(=O)N1CCc2cc3nc(C)cc(C)c3cc21` [MMV054312], the “Cruzain Inhibition 0’” value is given as 10%.

As to `Cc1nn(Cc2ccccc2)c(Cl)c1C(=O)NC1CCCCCC1` [MMV063404], the “Cruzain Inhibition 0’” value was 11%.

Take `FC(F)(F)c1nnc2ccc(Cl)nn12` [MMV069458]: the “Cruzain Inhibition 0’” value is reported as 2%.

On to `O=C1N(Cc2cc3ccccc3s2)CC2CN(Cc3ccccc3)CCN12` (stereo not drawn) [MMV084603], for which the “Cruzain Inhibition 0’” value was 7.6%.

With `O=C(C(Cc1c[nH]c2ccccc12)NS(=O)(=O)c1ccc(Cl)cc1)N1CCCCC1` (stereo not drawn) [MMV085210], the “Cruzain Inhibition 0’” value turned out to be 4.5%.

In the case of `CCOC(=O)NC(=O)c1ccsc1NC(=O)c1nc2ccccc2s1` [MMV090930], the “Cruzain Inhibition 0’” value was -18%.

On to `O=C(Nc1nnc(-c2ccc(Cl)cc2)o1)c1cccc(C(F)(F)F)c1` [MMV102872], for which the “Cruzain Inhibition 0’” value is -1.6%.

Still in this test, the particulars now being: 0’ (pre-incubation time); Pathogen Box screening results.
For the compound `Nc1nccc2ccc(Oc3ccncc3)cc12` [MMV026313], the “Cruzain Inhibition 0’” value was -0.8%.

Consider `O=C(Nc1cnc2ccccc2c1)c1cccc(-n2cnnn2)c1` [MMV084864], for which the “Cruzain Inhibition 0’” value amounted to 0%.

On to `CCC(C)NC(=O)c1ccc(NC(=O)C2(c3ccccc3)CCCC2)cc1` (stereo not drawn) [MMV146306], for which the “Cruzain Inhibition 0’” value stood at 0.6%.

The test is the same for the next values; noted with them: 0’ (pre-incubation time); sheet "Screening results".
`O=C(Nc1cccc(Cl)c1)c1cnc(N2CCN(c3ccncc3)CC2)c(Cl)c1` [MMV024406]: the “Cruzain 0’ Inhibition” value is 17%.

For `CN(C(=O)c1cc2c(-c3cncnc3)cccc2[nH]1)c1ccccc1` [MMV024443], the “Cruzain 0’ Inhibition” value is recorded as 5%.

Turning to `Cc1cccc(C(=O)Nc2ccnc(N(C)C3CCN(CC(C)C)CC3)c2)c1` [MMV024829], the “Cruzain 0’ Inhibition” value turned out to be 9%.

Staying with this test, now noted: 10’ (pre-incubation time); Pathogen Box screening results.
With `Nc1nccc2ccc(Oc3ccncc3)cc12` [MMV026313], the “Cruzain Inhibition 10’” value turned out to be 8%.

In the case of `O=C(Nc1cnc2ccccc2c1)c1cccc(-n2cnnn2)c1` [MMV084864], the “Cruzain Inhibition 10’” value is 11%.

Take `CCC(C)NC(=O)c1ccc(NC(=O)C2(c3ccccc3)CCCC2)cc1` (stereo not drawn) [MMV146306]: the “Cruzain Inhibition 10’” value is listed as 1.8%.

Still in this test, the particulars now being: 10’ (pre-incubation time); sheet "Screening results".
Take `O=C(Nc1cccc(Cl)c1)c1cnc(N2CCN(c3ccncc3)CC2)c(Cl)c1` [MMV024406]: the “Cruzain 10’ Inhibition” value is listed as 25%.

Turning to `CN(C(=O)c1cc2c(-c3cncnc3)cccc2[nH]1)c1ccccc1` [MMV024443], the “Cruzain 10’ Inhibition” value is given as 2.7%.

Take `Cc1cccc(C(=O)Nc2ccnc(N(C)C3CCN(CC(C)C)CC3)c2)c1` [MMV024829]: the “Cruzain 10’ Inhibition” value was 7%.

Still in this test, the particulars now being: 10’ (pre-incubation); sheet Screening results.
On to `CS(=O)(=O)c1cccc(-c2cnc3[nH]cc(-c4ccc(CCC(=O)O)cc4)c3c2)c1` [MMV026020], for which the “Cruzain Inhibition 10’” value stood at 17%.

With `N#Cc1ccc(-c2ccc(OCC(N)=O)cc2)cc1` [MMV053220], the “Cruzain Inhibition 10’” value is -5%.

With `CC(=O)N1CCc2cc3nc(C)cc(C)c3cc21` [MMV054312], the “Cruzain Inhibition 10’” value stood at 11%.

Consider `Cc1nn(Cc2ccccc2)c(Cl)c1C(=O)NC1CCCCCC1` [MMV063404], for which the “Cruzain Inhibition 10’” value came out at 7.6%.

For the compound `FC(F)(F)c1nnc2ccc(Cl)nn12` [MMV069458], the “Cruzain Inhibition 10’” value is listed as -4%.

Take `O=C1N(Cc2cc3ccccc3s2)CC2CN(Cc3ccccc3)CCN12` (stereo not drawn) [MMV084603]: the “Cruzain Inhibition 10’” value is reported as 6.4%.

In the case of `O=C(C(Cc1c[nH]c2ccccc12)NS(=O)(=O)c1ccc(Cl)cc1)N1CCCCC1` (stereo not drawn) [MMV085210], the “Cruzain Inhibition 10’” value amounted to 6.5%.

On to `CCOC(=O)NC(=O)c1ccsc1NC(=O)c1nc2ccccc2s1` [MMV090930], for which the “Cruzain Inhibition 10’” value is listed as 3%.

Take `O=C(Nc1nnc(-c2ccc(Cl)cc2)o1)c1cccc(C(F)(F)F)c1` [MMV102872]: the “Cruzain Inhibition 10’” value is reported as -10%.

The target of a further test is T1, TbrCatL (Trypanosoma brucei rhodesiense, UniProt Q95PM0).
T1 construct: Conor Caffrey (University of California San Diego)
T1 sequence (Q95PM0 entry or part of it): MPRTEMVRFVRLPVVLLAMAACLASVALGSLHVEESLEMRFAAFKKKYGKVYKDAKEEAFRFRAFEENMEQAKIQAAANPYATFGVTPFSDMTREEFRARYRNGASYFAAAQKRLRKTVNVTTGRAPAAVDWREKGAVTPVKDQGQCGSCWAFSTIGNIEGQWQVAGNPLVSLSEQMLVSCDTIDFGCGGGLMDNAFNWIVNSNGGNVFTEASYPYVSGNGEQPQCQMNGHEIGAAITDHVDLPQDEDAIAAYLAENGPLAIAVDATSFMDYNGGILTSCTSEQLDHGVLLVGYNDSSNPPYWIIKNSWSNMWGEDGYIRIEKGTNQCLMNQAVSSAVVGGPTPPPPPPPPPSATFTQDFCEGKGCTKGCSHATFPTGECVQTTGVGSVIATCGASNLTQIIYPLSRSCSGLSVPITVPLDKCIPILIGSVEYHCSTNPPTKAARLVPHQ
Briefly: TbrCatL enzymatic inhibition assay (cleavage of fluorogenic substrate Z-FR-AMC). To be noted: 0’ (no pre-incubation); sheet Screening results. The format is biochemical. In short, it runs like this: as §1
`CS(=O)(=O)c1cccc(-c2cnc3[nH]cc(-c4ccc(CCC(=O)O)cc4)c3c2)c1` [MMV026020]: the “TbrCatL Inhibition 0’” value amounted to 15%.

Turning to `N#Cc1ccc(-c2ccc(OCC(N)=O)cc2)cc1` [MMV053220], the “TbrCatL Inhibition 0’” value is on record as -5.7%.

As to `CC(=O)N1CCc2cc3nc(C)cc(C)c3cc21` [MMV054312], the “TbrCatL Inhibition 0’” value stood at 9%.

In the case of `Cc1nn(Cc2ccccc2)c(Cl)c1C(=O)NC1CCCCCC1` [MMV063404], the “TbrCatL Inhibition 0’” value was 7.6%.

On to `FC(F)(F)c1nnc2ccc(Cl)nn12` [MMV069458], for which the “TbrCatL Inhibition 0’” value turned out to be 4%.

With `O=C1N(Cc2cc3ccccc3s2)CC2CN(Cc3ccccc3)CCN12` (stereo not drawn) [MMV084603], the “TbrCatL Inhibition 0’” value turned out to be 18%.

Take `O=C(C(Cc1c[nH]c2ccccc12)NS(=O)(=O)c1ccc(Cl)cc1)N1CCCCC1` (stereo not drawn) [MMV085210]: the “TbrCatL Inhibition 0’” value was 11%.

With `CCOC(=O)NC(=O)c1ccsc1NC(=O)c1nc2ccccc2s1` [MMV090930], the “TbrCatL Inhibition 0’” value is on record as 1.3%.

As to `O=C(Nc1nnc(-c2ccc(Cl)cc2)o1)c1cccc(C(F)(F)F)c1` [MMV102872], the “TbrCatL Inhibition 0’” value is recorded as 0.5%.

The same test, now with this note: 0’ (pre-incubation time); Pathogen Box screening results.
In the case of `Nc1nccc2ccc(Oc3ccncc3)cc12` [MMV026313], the “TbrCatL Inhibition 0’” value is on record as 0.4%.

`O=C(Nc1cnc2ccccc2c1)c1cccc(-n2cnnn2)c1` [MMV084864]: the “TbrCatL Inhibition 0’” value is reported as -11%.

On to `CCC(C)NC(=O)c1ccc(NC(=O)C2(c3ccccc3)CCCC2)cc1` (stereo not drawn) [MMV146306], for which the “TbrCatL Inhibition 0’” value is -3.2%.

The test is the same for the next values; noted with them: 0’ (pre-incubation time); sheet "Screening results".
On to `O=C(Nc1cccc(Cl)c1)c1cnc(N2CCN(c3ccncc3)CC2)c(Cl)c1` [MMV024406], for which the “TbrCatL 0’ Inhibition” value is 3%.

Turning to `CN(C(=O)c1cc2c(-c3cncnc3)cccc2[nH]1)c1ccccc1` [MMV024443], the “TbrCatL 0’ Inhibition” value is given as -4.6%.

As for `Cc1cccc(C(=O)Nc2ccnc(N(C)C3CCN(CC(C)C)CC3)c2)c1` [MMV024829], the “TbrCatL 0’ Inhibition” value stood at 4%.

Still in this test, the particulars now being: 10’ (pre-incubation time); Pathogen Box screening results.
Regarding `Nc1nccc2ccc(Oc3ccncc3)cc12` [MMV026313], the “TbrCatL Inhibition 10’” value is reported as 19%.

Consider `O=C(Nc1cnc2ccccc2c1)c1cccc(-n2cnnn2)c1` [MMV084864], for which the “TbrCatL Inhibition 10’” value came to 5%.

As to `CCC(C)NC(=O)c1ccc(NC(=O)C2(c3ccccc3)CCCC2)cc1` (stereo not drawn) [MMV146306], the “TbrCatL Inhibition 10’” value is listed as -6.5%.

Still in this test, the particulars now being: 10’ (pre-incubation time); sheet "Screening results".
Turning to `O=C(Nc1cccc(Cl)c1)c1cnc(N2CCN(c3ccncc3)CC2)c(Cl)c1` [MMV024406], the “TbrCatL 10’ Inhibition” value stood at 20%.

For `CN(C(=O)c1cc2c(-c3cncnc3)cccc2[nH]1)c1ccccc1` [MMV024443], the “TbrCatL 10’ Inhibition” value was -3.8%.

As to `Cc1cccc(C(=O)Nc2ccnc(N(C)C3CCN(CC(C)C)CC3)c2)c1` [MMV024829], the “TbrCatL 10’ Inhibition” value is listed as 7%.

The same test, now with this note: 10’ (pre-incubation); sheet Screening results.
For `CS(=O)(=O)c1cccc(-c2cnc3[nH]cc(-c4ccc(CCC(=O)O)cc4)c3c2)c1` [MMV026020], the “TbrCatL Inhibition 10’” value is on record as 20%.

`N#Cc1ccc(-c2ccc(OCC(N)=O)cc2)cc1` [MMV053220]: the “TbrCatL Inhibition 10’” value was -7%.

For the compound `CC(=O)N1CCc2cc3nc(C)cc(C)c3cc21` [MMV054312], the “TbrCatL Inhibition 10’” value was 19%.

Regarding `Cc1nn(Cc2ccccc2)c(Cl)c1C(=O)NC1CCCCCC1` [MMV063404], the “TbrCatL Inhibition 10’” value was 2%.

Turning to `FC(F)(F)c1nnc2ccc(Cl)nn12` [MMV069458], the “TbrCatL Inhibition 10’” value is recorded as 0%.

Turning to `O=C1N(Cc2cc3ccccc3s2)CC2CN(Cc3ccccc3)CCN12` (stereo not drawn) [MMV084603], the “TbrCatL Inhibition 10’” value was found to be 4.6%.

`O=C(C(Cc1c[nH]c2ccccc12)NS(=O)(=O)c1ccc(Cl)cc1)N1CCCCC1` (stereo not drawn) [MMV085210]: the “TbrCatL Inhibition 10’” value was 8%.

For `CCOC(=O)NC(=O)c1ccsc1NC(=O)c1nc2ccccc2s1` [MMV090930], the “TbrCatL Inhibition 10’” value was determined as 0.3%.

On to `O=C(Nc1nnc(-c2ccc(Cl)cc2)o1)c1cccc(C(F)(F)F)c1` [MMV102872], for which the “TbrCatL Inhibition 10’” value was -16%.

The values are drawn from paper PMC9967275, “Screening the Pathogen Box to Discover and Characterize New Cruzain and TbrCatL Inhibitors” (Pathogens, 2023).
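Further: at 5 µM compound concentration.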
